Tests used:
POMC [1] = assay: UV-B-induced POMC gene expression in keratinocytes (qRT-PCR); format: cell-based, human; settings: NHEKs, 3 μg/ml 13-HODE, 160 J/m^2 UV-B, harvest 6 h after exposure; standardized to 18S rRNA; UV alone factor 1.8; p<0.01
Protocol: In the present example, the effect of 13-HODE on the POMC gene expression in UV-B-stimulated keratinocytes (normal human epidermal keratinocytes, NHEKs) was investigated. For this purpose, firstly primary human epidermal keratinocytes were prepared from neonatal foreskin. The procedure is described in the following publications: Grether-Beck et al., J Invest Dermatol 2005, 125: 545-553; and Grether-Beck et al., Exp Dermatol 2008, 17: 771-779. […]
After cultivation for 24 hours, the cells were exposed to a dose of 160 J/m^2 of UV-B radiation. […] The emitted power was determined using an IL 1700 Research Radiometer and SEE 240 UV-B photodetector (International Light Inc., Newbury Port, Mass.) and was 2.4 W/m^2 at a distance of 22 cm. […]
Isolation of whole-RNA and subsequent analysis of the gene expression by means of quantitative Real Time PCR (qRT-PCR) was carried out as described previously (Grether-Beck et al., J Invest Dermatol 2005, 125: 545-553; Grether-Beck et al., Exp Dermatol 2008, 17: 771-779). […] The RNA concentration was determined by means of photometric measurement at 260/280 nm (Biophotometer, Eppendorf, Germany). […] Besides the POMC expression, the expression of the 18s rRNA gene was also determined quantitatively as a reference. […]

POMC [2] = assay: Basal (not UV-induced) POMC gene expression in keratinocytes (qRT-PCR); format: cell-based, human; settings: NHEKs, 10 μg/ml 13-HODE, no UV, 24 h + 24 h; standardized to 18S rRNA
Protocol: In the present example, the effect of 13-HODE on the POMC gene expression was investigated in keratinocytes which, in contrast to Example 1, have not been stimulated by prior UV exposure. For this purpose, firstly primary human epidermal keratinocytes were prepared from neonatal foreskin. The procedure is described in the following publications: Grether-Beck et al., J Invest Dermatol 2005, 125: 545-553; Grether-Beck et al., Exp Dermatol 2008, 17: 771-779. […]
The isolation of the whole-RNA and also the subsequent analysis of the gene expression by means of quantitative Real Time PCR (qRT-PCR) was carried out as described previously (Grether-Beck et al., J Invest Dermatol 2005, 125: 545-553; Grether-Beck et al., Exp Dermatol 2008, 17: 771-779). […] The RNA concentration was determined by means of photometric measurement at 260/280 nm (Biophotometer, Eppendorf, Germany). […] Besides the POMC expression, the expression of the 18s rRNA gene was also quantitatively determined as a reference. […]
The PCR reactions were carried out on an Opticon 1 (MJ Research, Waltham, Mass., USA). For all PCRs, double determinations of the biological triplicates were carried out, and for the evaluation averages of all measurements were calculated. […]

IL-6 = assay: UV-stimulated induction of IL-6 gene expression in keratinocytes (qRT-PCR); format: cell-based, human; settings: NHEKs, UV-B exposed, treated with 13-HODE as in Example 1; UV alone induction factor 10.1
Description: (§1) In the present example, the effect of 13-HODE on the expression of various proinflammatory marker genes in UV-B-stimulated keratinocytes (normal human epidermal keratinocytes, NHEKs) was investigated. The experimental procedure was largely identical to the procedure described in Example 1. Differences consisted merely in the selection of the gene-specific primers for carrying out the quantitative Real-Time PCR.

IL-8 = assay: UV-stimulated induction of IL-8 gene expression in keratinocytes (qRT-PCR); format: cell-based, human; settings: NHEKs, UV-B exposed, treated with 13-HODE as in Example 1; UV alone induction factor 11.2
Description: as §1

TNF-α = assay: UV-stimulated induction of TNF-α gene expression in keratinocytes (qRT-PCR); format: cell-based, human; settings: NHEKs, UV-B exposed, treated with 13-HODE as in Example 1; UV alone induction factor 7.4
Description: as §1

COX2 = assay: UV-stimulated induction of COX2 gene expression in keratinocytes (qRT-PCR); format: cell-based, human; settings: NHEKs, UV-B exposed, treated with 13-HODE as in Example 1; UV alone induction factor 2.5
Description: as §1

human skin = assay: Human in vivo study, maintenance of the skin tan (colorimetric skin colour); settings: 39 people, forearm, twice daily for 56 days, formulations with 0.1, 0.4, 1.0% 13-HODE vs formulation without
Protocol: In order to test to what extent 13-HODE has an influence on maintaining the skin tan, the maintenance of the summer tan under the influence of 13-HODE in test formulations was investigated in a clinical study. The study was carried out over a period of 8 weeks from mid-September to mid-November in Germany. The subject of the investigation was the skin colour by means of colorimetric measurements using a Skin-Colorimeter® CL 400 from Courage+Khazaka electronic GmbH, Cologne, Germany. The measurements were made in each case on the inside of the left and right forearm on a defined area measuring 3 cm×3 cm at a distance of 11-14 cm from the wrist. The average value, which resulted from the individual values of six to nine repeat measurements, was registered. 39 people aged 21-55 years participated, of which 28 were female and 11 male. In each case, the starting value of the skin colour TO was determined prior to the treatment and the value T8 was determined after treatment for 56 days with test formulations. The application frequency was twice daily, morning and evening. The test persons were given one formulation for the left arm and one for the right arm (formulation A, B, C, D; as per the table below).

## CCCCCC(O)C=CC=CCCCCCCCC(=O)O (centres unmarked) [13-HODE, 13-hydroxy-9,11-octadecadienoic acid]
POMC [1]
  POMC expression increased by a factor compared to the untreated control: 4.9
POMC [2]
  basal (not UV-stimulated) POMC expression compared to the control treated with the vehicle (DMSO): 1.2 fold
IL-6
  expression level of IL-6 in UV-exposed cells: considerably reduced expression level
IL-8
  expression level of IL-8 in UV-exposed cells: considerably reduced expression level
TNF-α
  expression level of TNF-α in UV-exposed cells: considerably reduced expression level
COX2
  expression level of COX2 in UV-exposed cells: considerably reduced expression level
Human skin
  decrease in the blue-yellow parameter b* of the skin colour: reduced to differing degrees
  increase in the parameter ITA° of the skin colour: reduced to differing degrees

— US20130315849A1, “USE OF 13-HYDROXY-9,11-OCTADECADIENOIC ACID FOR TANNING HUMAN SKIN” (EVONIK GOLDSCHMIDT GMBH, priority 2010, published 2013)
